Assay results reported in ChEMBL document CHEMBL1128837, “The evaluation of 2- and 6-substituted carbocyclic nucleosides as building blocks for antisense oligonucleotides” (Bioorg Med Chem Lett, 1995).

Columns and labels:
[1] = Ratio of effect of compound on the nuclease resistance of full length oligonucleotide to that of wild type in 10% heat-activated fetal calf serum (FCS); type: functional
[2] = Effect of compound on the nuclease resistance of wild type 5'-d(TCC AGG TGT CCG TTT C)-3' in 10% heat-activated fetal calf serum (FCS) expressed as t1/2; type: functional
[3] = Difference in melting temperature (Tm) between the modified DNA/RNA duplex and the unmodified wild type (WT) duplex per modification at 52.3 degree Celsius (5'-TTTTtCTCTCTCTCT-3'); type: functional
[4] = Difference in melting temperature (Tm) between the modified DNA/RNA duplex and the unmodified wild type (WT) duplex per modification at 61.7 degree Celsius (5'-CTCGTACttttCCGGTCC-3'); type: functional
[5] = Difference in melting temperature (Tm) between the modified DNA/RNA duplex and the unmodified wild type (WT) duplex per modification at 63.9 degree Celsius (5'-CTCGTACCtTTCCGGTCC-3'); type: functional
[6] = Difference in melting temperature (Tm) between the modified DNA/RNA duplex and the unmodified wild type (WT) duplex per modification at 61.8 degree Celsius (5'-tCCAGGtGtCCGCAtC-3'); type: functional
[7] = Effect of compound on the nuclease resistance of 5'-d(TCC AGG TGT CCG TTT C)-3' in 10% heat-activated fetal calf serum (FCS) expressed as t1/2; type: functional
[8] = Difference in melting temperature (Tm) between the modified DNA/RNA duplex and the unmodified wild type (WT) duplex per modification at 48 degree Celsius (5'-GCGttttttttttGCG-3'); type: functional
[9] = Difference in melting temperature (Tm) between the modified DNA/RNA duplex and the unmodified wild type (WT) duplex per modification at 63.9 degree Celsius (5-ctcGtacctttccGGtcC-3; type: functional
[10] = Stability against degradation by 3'-exonucleases for the sequence 5'-d(TCC AGG TGT CCG TTT C)-3' in 10% heat-activated fetal calf serum (FCS); type: functional
[11] = Difference in melting temperature (Tm) between the modified DNA/RNA duplex and the unmodified wild type (WT) duplex per modification at 52.3 degree Celsius (5'-tttttctctctctT-3'); type: functional
[12] = Difference in melting temperature (Tm) between the modified DNA/RNA duplex and the unmodified wild type (WT) duplex per modification at 52.3 degree Celsius (5-tttttC*tc*tc*tc*tc*T-3); type: functional
[13] = Difference in melting temperature (Tm) between the modified DNA/RNA duplex and the unmodified wild type (WT) duplex per modification at 52.3 degree Celsius (5-tttttc*tc*tc*tc*tc*T-3); type: functional
[14] = Melting temperature (Tm) of the modified DNA/RNA duplex at 48 degree Celsius (5'-GCGtttttttttGCG-3'); No cooperative melting observed
[15] = Melting temperature (Tm) of the modified DNA/RNA duplex at 48 degree Celsius (5'-GCGttttttttttGCG-3')

## CO[C@H]1[C@H](CO)[C@@H](O)C[C@@H]1n1cc(C)c(=O)[nH]c1=O
[1]
  Ratio: 10
[2]
  T1/2: 2 h
[3]
  ΔTm: -2
[4]
  ΔTm: -0.7
[5]
  ΔTm: 0.2
[6]
  ΔTm: -1.3
[7]
  T1/2: 20 h
[8]
  ΔTm: -0.9

## Cc1cn([C@H]2C[C@H](O)[C@@H](CO)O2)c(=O)[nH]c1=O
[9]
  ΔTm: 0.3
[10]
  ΔTm: 2.5
[11]
  ΔTm: 0.4
[5]
  ΔTm: 0.2
[8]
  ΔTm: 0.25

## CO[C@@H]1[C@H](O)[C@@H](CO)C[C@H]1n1cc(C)c(=O)[nH]c1=O
[3]
  ΔTm: 1.1
[4]
  ΔTm: -0.7
[5]
  ΔTm: -1.9
[8]
  ΔTm: -1

## COCCOCCO[C@H]1[C@H](CO)[C@@H](O)C[C@@H]1n1cc(C)c(=O)[nH]c1=O
[3]
  ΔTm: -1.8
[12]
  ΔTm: -1.9

## Cc1cn([C@H]2C[C@H](O)[C@@H](CO)[C@@H]2OCCCCN)c(=O)[nH]c1=O
[1]
  Ratio: > 24
[2]
  T1/2: 2 h
[3]
  ΔTm: -1.1
[5]
  ΔTm: -1.8
[6]
  ΔTm: -1.4
[7]
  T1/2: > 48 h
[8]
  ΔTm: -1.9

## Cc1cn([C@H]2C[C@H](O)[C@@H](CO)[C@@H]2O)c(=O)[nH]c1=O
[1]
  Ratio: 7
[13]
  ΔTm: 0.4
[2]
  T1/2: 2 h
[3]
  ΔTm: -0.8
[4]
  ΔTm: 0.2
[6]
  ΔTm: -0.4
[7]
  T1/2: 14 h
[8]
  ΔTm: 0.8

## Cc1cn([C@H]2C[C@H](O)[C@@H](CO)[C@@H]2OCCCc2ccccc2)c(=O)[nH]c1=O
[1]
  Ratio: > 24
[2]
  T1/2: 2 h
[3]
  ΔTm: -4
[14]
  Tm: < 20 °C
[15]
  Tm: < 20 °C
[4]
  ΔTm: -1.7
[5]
  ΔTm: -2.8
[6]
  ΔTm: -2.8
[7]
  T1/2: > 48 h

## COCCOCCOCCO[C@@H]1[C@H](O)[C@@H](CO)C[C@H]1n1cc(C)c(=O)[nH]c1=O
[3]
  ΔTm: 0.2
[15]
  Tm: < 20 °C
[4]
  ΔTm: -2.6
[5]
  ΔTm: -2.9
[6]
  ΔTm: -1.1
